Molecules are shown by their SMILES. Values joined by “and” are separate entries in the source; they are usually repeats but may differ in a detail not shown here. Identical values can stand only once.

For assay [1], the target named is T1, mutant desminL385P (Homo sapiens, UniProt P17661, L385P).
T1 construct: expressed in transfected cells; host or cells: HeLa, transient
Briefly: WB degradation of mutant desmin in HeLa cells. The conditions noted are these: exogenously expressed. The class given is cell-based. Here is the method: (§1) Adherent cells were washed with phosphate-buffered saline (PBS) and cell pellets were lysed in SDS-based sample buffer (277.8 mM Tris-HCI, pH 6.8, 4.4% LDS, 44.4% (v/v) glycerol) containing beta-mercaptoethanol. Alternatively, cell pellets or protein supernatants were lysed in 5X Laemmli sample buffer. Whole-cell lysates were separated using SDS-PAGE, and transferred onto polyvinyllidene difluoride membranes at 100 V for 2 h at 4 °C. The membrane was incubated with a blocking solution consisting 4% skim milk in PBS solution for 30 min at room temperature and incubated with primary antibodies overnight, followed by incubation with host-specific HRP-conjugated secondary antibodies (1:10000 dilution). For signal detection, the membrane was developed with a mixture of ECL solution (Thermo Fisher Scientific) using X-ray films. Densitometry of developed bands was measured and analyzed with ImageJ (NIH, Bethesda).
Supplementary Fig. 5. AUTOTACs selectively target pathological aggregation-prone proteins for autophagic degradation. (a) WB in HEK293T cells treated with PBA-1105 (1 μM) and MG132 (1 μM, 24 h) at the indicated time points. (b) ICC of HeLa cells treated with the indicated compounds (1 μM, 24 h). Scale bar, 10 μm. (c) WB in HEK293T cells treated with PBA-1105 (500 nM, 24 h) and MG132 (1 μM, 24 h) under siRNA-mediated knockdown of p62 or ATG7 (20 nM, 48 h). (d) ICC in HeLa cells transiently expressing WIPI2-GFP and treated with Anle138b-F105 (1 μM, 24 h). Scale bar, 10 μm. (e) ICC in HeLa cells treated with […]
nM, 24 h). (g, h) WB in HeLa cells transiently expressing wild type or mutant (L385P) desmin-flag with LacZ-myc and treated with PBA-1105, PBA-1105b or Anle138b-F105 at the […]

Assay [2] concerns the target T2, androgen receptor (AR) (Homo sapiens, UniProt P10275, T878A).
T2 construct: Targeted autophagic degradation of endogenous oncoproteins by AUTOTAC; endogenous in cells; host or cells: LNCaP
T2 sequence (P10275 1-920 T878A): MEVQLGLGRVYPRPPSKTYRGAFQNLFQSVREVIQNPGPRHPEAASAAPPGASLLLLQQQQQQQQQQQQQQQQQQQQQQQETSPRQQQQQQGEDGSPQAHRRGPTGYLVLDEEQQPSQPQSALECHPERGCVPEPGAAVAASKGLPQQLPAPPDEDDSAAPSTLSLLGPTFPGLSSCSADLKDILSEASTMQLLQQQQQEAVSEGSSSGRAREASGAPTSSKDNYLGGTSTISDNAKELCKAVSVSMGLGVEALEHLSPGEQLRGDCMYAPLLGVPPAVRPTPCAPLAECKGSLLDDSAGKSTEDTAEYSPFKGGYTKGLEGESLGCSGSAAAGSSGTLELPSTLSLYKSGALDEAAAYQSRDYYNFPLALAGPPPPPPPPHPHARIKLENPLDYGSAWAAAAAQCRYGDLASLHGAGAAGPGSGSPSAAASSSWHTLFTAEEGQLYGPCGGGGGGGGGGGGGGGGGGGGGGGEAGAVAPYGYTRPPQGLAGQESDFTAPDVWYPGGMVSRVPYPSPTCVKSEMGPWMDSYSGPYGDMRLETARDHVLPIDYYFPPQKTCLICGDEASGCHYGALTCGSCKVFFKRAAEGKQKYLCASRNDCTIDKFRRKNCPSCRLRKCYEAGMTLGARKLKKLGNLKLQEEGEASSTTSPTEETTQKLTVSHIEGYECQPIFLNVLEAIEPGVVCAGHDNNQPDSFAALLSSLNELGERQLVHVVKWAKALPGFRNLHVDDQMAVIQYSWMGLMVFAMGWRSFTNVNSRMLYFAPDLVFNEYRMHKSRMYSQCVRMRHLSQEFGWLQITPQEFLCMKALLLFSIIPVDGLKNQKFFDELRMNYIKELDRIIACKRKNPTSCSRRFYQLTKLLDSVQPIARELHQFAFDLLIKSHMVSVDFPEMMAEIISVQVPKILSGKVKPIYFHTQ
Briefly: Western blot degradation of AR in LNCaP cells. Format: cell-based. The conditions noted are these: for DC50: LNCaP prostate cancer cells; for AR normalized to control, AVG % / AR normalized to GAPDH and to control, percentage: LncaP; for AR normalized to GAPDH and to control, percentage: single experiments, listed as Vinclo.-2204. Here is the method:
as §1
Background: In western blotting, separated proteins are transferred to a membrane and probed.

T1 sequence (P17661 whole entry L385P): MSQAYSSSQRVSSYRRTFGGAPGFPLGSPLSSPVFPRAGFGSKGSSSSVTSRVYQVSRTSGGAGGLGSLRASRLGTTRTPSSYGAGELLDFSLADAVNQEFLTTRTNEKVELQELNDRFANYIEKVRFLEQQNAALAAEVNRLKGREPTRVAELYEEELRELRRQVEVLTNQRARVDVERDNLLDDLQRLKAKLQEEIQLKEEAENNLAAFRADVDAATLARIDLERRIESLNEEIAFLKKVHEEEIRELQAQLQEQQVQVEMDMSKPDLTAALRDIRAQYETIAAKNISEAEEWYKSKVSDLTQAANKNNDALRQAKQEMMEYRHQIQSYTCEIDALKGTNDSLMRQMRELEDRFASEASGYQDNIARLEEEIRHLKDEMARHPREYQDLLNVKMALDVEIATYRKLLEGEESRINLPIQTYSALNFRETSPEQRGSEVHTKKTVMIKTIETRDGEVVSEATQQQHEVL

As for `O=C(CCCc1ccccc1)NCCOCCOCCOCCNCc1ccc(OCc2ccccc2)c(OCc2ccccc2)c1` [PBA-1105], the “degradation of mutant desminL385P” value in assay [1] is recorded as “induced the degradation”.

As to `C=CC(C)(O)C(=O)N(C(=O)NCCOCCOCCNCC(O)COc1ccc(OCCc2ccccc2)c(OCCc2ccccc2)c1)c1cc(Cl)cc(Cl)c1` (stereo not drawn) [VinclozolinM2-2204], the half-maximal degradation concentration (DC50) is roughly 200 nM in assay [2] and 211 nM in assay [2] (listed as Vinclozolin-2204). In addition, the “AR normalized to control, AVG %” value is 98.914% in assay [2] (10 nM); 121.781% in assay [2] (50 nM); 60.0788% in assay [2] (100 nM); 19.2601% in assay [2] (0.5 uM); 23.6569% in assay [2] (1 uM); 22.3824% in assay [2] (2.5 uM). Moreover, the “AR normalized to control, AVG %” value in assay [2] (10 uM) was found to be 6.006%. In addition, the “AR normalized to GAPDH and to control, percentage” value in assay [2] (10 nM) is 90.6238% and 111.624% and 94.4939%; in assay [2] (50 nM), 119.329% and 128.663% and 117.351%; in assay [2] (100 nM) it was 61.0357% and 62.8026% and 56.3981%; in assay [2] (0.5 uM) it was 14.6016% and 23.3958% and 19.7827%; in assay [2] (10 uM) it was 9.375% and 3.388% and 5.255%.

Usually DC50 stands for the midpoint of the concentration-degradation curve.

Source of the values: paper PMC8850458, “The AUTOTAC chemical biology platform for targeted protein degradation via the autophagy-lysosome system” (Nature Communications, 2022).
